US5500410A, “Substituted alkylamide derivatives of teicoplanin” (Gruppo Lepetit S.p.A., priority 1989, dated 1996)

What was measured:
[1] = tested on: Strep. pyogenes C 203; experiment: In vivo test in mice septicemically infected with Strep. pyogenes C 203; settings: Strep. pyogenes C 203 septicemia
Description: The ED50 values (mg/kg) of representative compounds of the invention in in vivo tests in mice septicemically infected with Strep. pyogenes. C 203, obtained according to the procedure described by V. Arioli et al. (Journal of Antibiotics 29, 511; 1976) are given in table III.

[2] = tested on: Staphylococcus haemolyticus L 602; experiment: In vitro MIC, two-fold dilution in microtiter; type: cell-based; settings: 18-24 h at 37° C., inoculum about 10^4 CFU/ml
Protocol: (§1) Broth cultures are diluted enough so that the final inecuium is about 10^4 colony forming units/ml (CFU/ml).

[3] = tested on: Proteus vulgaris X19H ATCC 881; experiment: In vitro MIC, two-fold dilution in microtiter; type: cell-based; settings: 18-24 h at 37° C., inoculum about 10^4 CFU/ml
Protocol: as §1

[4] = tested on: Pseudomonas aeruginosa ATCC 10145; experiment: In vitro MIC, two-fold dilution in microtiter; type: cell-based; settings: 18-24 h at 37° C., inoculum about 10^4 CFU/ml
Protocol: as §1

[5] = tested on: Escherichia coli SKF 12140; experiment: In vitro MIC, two-fold dilution in microtiter; type: cell-based; settings: 18-24 h at 37° C., inoculum about 10^4 CFU/ml
Protocol: as §1

[6] = tested on: Staphylococcus epidermidis ATCC 12228; experiment: In vitro MIC, two-fold dilution in microtiter; type: cell-based; settings: 18-24 h at 37° C., inoculum about 10^4 CFU/ml
Protocol: as §1

[7] = tested on: Streptococcus pneumoniae UC 41; experiment: In vitro MIC, two-fold dilution in microtiter; type: cell-based; settings: 18-24 h at 37° C., inoculum about 10^4 CFU/ml
Protocol: as §1

[8] = tested on: Streptococcus pyogenes C 203; experiment: In vitro MIC, two-fold dilution in microtiter; type: cell-based; settings: 18-24 h at 37° C., inoculum about 10^4 CFU/ml
Protocol: as §1

[9] = tested on: Staphylococcus aureus TOUR; experiment: In vitro MIC, two-fold dilution in microtiter; type: cell-based; settings: 18-24 h at 37° C., inoculum about 10^4 CFU/ml
Protocol: as §1

[10] = tested on: Streptococcus faecalis ATCC 7080; experiment: In vitro MIC, two-fold dilution in microtiter; type: cell-based; settings: 18-24 h at 37° C., inoculum about 10^4 CFU/ml
Protocol: as §1

Structure (SMILES) | ED50 p.o. [1] | ED50 s.c. [1] | MIC Staphylococcus haemolyticus L 602 [2] | MIC Proteus vulgaris X19H ATCC 881 [3] | MIC Pseudomonas aeruginosa ATCC 10145 [4] | MIC Escherichia coli SKF 12140 [5] | MIC Staphylococcus epidermidis ATCC 12228 [6] | MIC Streptococcus pneumoniae UC 41 [7] | MIC Streptococcus pyogenes C 203 [8] | MIC Staphylococcus aureus TOUR [9] | MIC Streptococcus faecalis ATCC 7080 [10]
CC(=O)N[C@H]1[C@H](OC2c3ccc(c(Cl)c3)Oc3cc4cc(c3O[C@@H]3O[C@H](CO)[C@@H](O)[C@H](O)[C@H]3NC(=O)CCCCCCC(C)C)Oc3ccc(cc3Cl)CC3NC(=O)C(N)c5ccc(O)c(c5)Oc5cc(O)cc(c5)C(NC3=O)C(=O)NC4C(=O)NC3C(=O)NC2C(=O)NC(C(=O)NCCNCCN)c2cc(O)cc(O[C@H]4O[C@H](CO)[C@@H](O)[C@H](O)[C@@H]4O)c2-c2cc3ccc2O)O[C@H](CO)[C@@H](O)[C@@H]1O (stereo partly shown) [Compound 2] | about 60 mg/kg | 0.09 mg/kg | – | – | – | – | – | – | – | – | –
CC(=O)NC1C(OC2c3ccc(c(Cl)c3)Oc3cc4cc(c3OC3OC(CO)C(O)C(O)C3NC(=O)CCCCCCC(C)C)Oc3ccc(cc3Cl)CC3NC(=O)C(N)c5ccc(O)c(c5)Oc5cc(O)cc(c5)C(NC3=O)C(=O)NC4C(=O)NC3C(=O)NC2C(=O)NC(C(=O)NCCCNCCCNCCCN)c2cc(O)cc(OC4OC(CO)C(O)C(O)C4O)c2-c2cc3ccc2O)OC(CO)C(O)C1O (stereo not shown) [Compound 9] | about 80 mg/kg | 0.06 mg/kg | 0.12 microgram/ml | > 128 microgram/ml | 64 microgram/ml | > 128 microgram/ml | 0.06 microgram/ml | 0.12 microgram/ml | 0.06 microgram/ml | 0.12 microgram/ml | 0.12 microgram/ml
CC(=O)N[C@H]1[C@H](OC2c3ccc(c(Cl)c3)Oc3cc4cc(c3O)Oc3ccc(cc3Cl)CC3NC(=O)C(N)c5ccc(O)c(c5)Oc5cc(O)cc(c5)C(NC3=O)C(=O)NC4C(=O)NC3C(=O)NC2C(=O)NC(C(=O)NCCCNCCCCNCCCN)c2cc(O)cc(O)c2-c2cc3ccc2O)O[C@H](CO)[C@@H](O)[C@@H]1O (stereo partly shown) [Compound 44] | – | – | 0.06 microgram/ml | 128 microgram/ml | 16 microgram/ml | 4 microgram/ml | 0.06 microgram/ml | 0.25 microgram/ml | 0.06 microgram/ml | 0.12 microgram/ml | 0.25 microgram/ml
CN(C)CCCN(CCCN)CCCNC(=O)C1NC(=O)C2NC(=O)C(NC(=O)C3NC(=O)C4NC(=O)C(Cc5ccc(c(Cl)c5)Oc5cc3cc(c5O)Oc3ccc(cc3Cl)C2O)NC(=O)C(N)c2ccc(O)c(c2)Oc2cc(O)cc4c2)c2ccc(O)c(c2)-c2c(O)cc(O)cc21 (stereo not shown) [Compound 51] | – | – | 0.12 microgram/ml | 128 microgram/ml | 32 microgram/ml | 8 microgram/ml | 0.06 microgram/ml | 0.12 microgram/ml | 0.06 microgram/ml | 0.12 microgram/ml | 0.25 microgram/ml
CCN(CC)CCN(CCCN)CCCNC(=O)C1NC(=O)C2NC(=O)C(NC(=O)C3NC(=O)C4NC(=O)C(Cc5ccc(c(Cl)c5)Oc5cc3cc(c5O)Oc3ccc(cc3Cl)C2O)NC(=O)C(N)c2ccc(O)c(c2)Oc2cc(O)cc4c2)c2ccc(O)c(c2)-c2c(O)cc(O)cc21 (stereo not shown) [Compound 52] | – | – | 0.12 microgram/ml | > 128 microgram/ml | 128 microgram/ml | 32 microgram/ml | 0.03 microgram/ml | 0.12 microgram/ml | 0.12 microgram/ml | 0.12 microgram/ml | 0.12 microgram/ml
CN(C)CCCN1CCN(C(=O)C2NC(=O)C3NC(=O)C(NC(=O)C4NC(=O)C5NC(=O)C(Cc6ccc(c(Cl)c6)Oc6cc4cc(c6O)Oc4ccc(cc4Cl)C3O)NC(=O)C(N)c3ccc(O)c(c3)Oc3cc(O)cc5c3)c3ccc(O)c(c3)-c3c(O)cc(O)cc32)CC1 (stereo not shown) [Compound 53] | – | – | 0.06 microgram/ml | 128 microgram/ml | 32 microgram/ml | 8 microgram/ml | 0.06 microgram/ml | 0.12 microgram/ml | 0.06 microgram/ml | 0.06 microgram/ml | 0.12 microgram/ml
NCCCNCCCCCCCCCNCCCNC(=O)C1NC(=O)C2NC(=O)C(NC(=O)C3NC(=O)C4NC(=O)C(Cc5ccc(c(Cl)c5)Oc5cc3cc(c5O)Oc3ccc(cc3Cl)C2O)NC(=O)C(N)c2ccc(O)c(c2)Oc2cc(O)cc4c2)c2ccc(O)c(c2)-c2c(O)cc(O)cc21 (stereo not shown) [Compound 54] | – | – | 2 microgram/ml | > 128 microgram/ml | 128 microgram/ml | > 128 microgram/ml | 0.12 microgram/ml | 0.12 microgram/ml | 0.03 microgram/ml | 0.5 microgram/ml | 2 microgram/ml
NCCCNCCCCCCCCCCNCCCNC(=O)C1NC(=O)C2NC(=O)C(NC(=O)C3NC(=O)C4NC(=O)C(Cc5ccc(c(Cl)c5)Oc5cc3cc(c5O)Oc3ccc(cc3Cl)C2O)NC(=O)C(N)c2ccc(O)c(c2)Oc2cc(O)cc4c2)c2ccc(O)c(c2)-c2c(O)cc(O)cc21 (stereo not shown) [Compound 55] | – | – | 1 microgram/ml | > 128 microgram/ml | > 128 microgram/ml | > 128 microgram/ml | 0.12 microgram/ml | 0.12 microgram/ml | 0.12 microgram/ml | 1 microgram/ml | 1 microgram/ml
